This is an account of results in patent US20240000791A1, “Methods of Using 4-Amino-N-[4-(Methoxymethyl)Phenyl]-7-(1-Methylcyclopropyl)-6-(3-Morpholinoprop-1-YN-1-YL)-7H-Pyrrolo[2,3-D]Pyrimidine-5-Carboxamide for the Treatment of Tumors” (Helsinn Healthcare SA, priority 2020, published 2024).

Data set [1] in a line: Respiratory system, 4-week GLP study. Type of data set: in vivo, rat. Particulars: 25, 50 and 90 mg/kg BID, week 4. How it is done: The effect of HM06-01/TAS0953-01 on the respiratory system was also investigated after repeated administration with HM06-01/TAS0953-01 at 25, 50 and 90 mg/kg BID in the 4-week GLP study in rats further described in Example 8. Each group comprised 5 animals/group/sex.

Data set [2] is described as follows: 4-week GLP toxicity study in dog. The format is in vivo. Particulars: for AUC(0-t): beagle, dog, in vivo, po, 30 mg/kg, 30 mg/kg BID. The protocol:
In the 4-week GLP toxicity study in dog, animals received 0, 15, 30, and 45 mg/kg BID HM06-01/TAS0953-01 by oral gavage for 4 consecutive weeks followed by 2-week recovery period. In the high dose of 45 mg/kg BID group, test item-related mortality was observed: 2 males were prematurely sacrificed on Day 17 and Day 18 for ethical reasons (severe clinical signs associated with a significant body weight loss). The main cause of death was the mild to moderate multifocal subacute inflammation with alveolar or bronchioalveolar distribution, accompanied in one male with alveolar foreign body granulomas. In the other male, minimal pancreatic acinar vacuolation/apoptosis with prostatic acinar apoptosis were noted, for which the relationship with test item cannot be excluded.

A short description of data set [3]: ECG, 4-week toxicology GLP study. Type of data set: in vivo, dog. How it is done:
The effect of HM06-01/TAS0953-01 on the ECG was also investigated in the 4-week toxicology GLP study in dog as described above (and further described in Example 8) on week 1 (Day 2), week 4 (Day 23) and at the end of the 2-week recovery period. […] Whereas, on Day 23, no test item-related effects were noted on electrocardiographic parameters at 15 and 30 mg/kg BID in males. […] These electrocardiographic effects were no longer observed at the end of the 2 week recovery period. In addition, there were no abnormalities in electrocardiogram rhythm and waveforms on Day 2 and Day 23, and at the end of the recovery period.

Data set [4] is described as follows: Proconvulsant and anticonvulsant effects (pentylenetetrazole).
Data set [5] can be described thus: 4-week GLP toxicity study in rat. Particulars: for AUC(0-t): 50 mg/kg, 50 mg/kg BID. Type of data set: in vivo. The protocol:
In the 4-week GLP toxicity study in rat, animals received 0, 25, 50, and 90 mg/kg BID HM06-01/TAS0953-01 by oral gavage. In the high dose of 90 mg/kg BID group, test item-related mortality was observed: 3 females were found dead or were prematurely sacrificed for ethical reasons (severe clinical signs like decreased activity, abnormal respiratory rate and erected fur) from Day 10 to Day 14. At necropsy, discolorations of the lungs were generally observed, histologically correlated with adverse moderate to marked inflammatory changes in the lungs (alveolar/perivascular inflammation, macrophages aggregates, alveolar oedema/hemorrhage). One additional female (satellite) was found dead on Day 7 before dosing. However, in absence of clinical sign and of abnormality at necropsy, the relationship with the test item administration was considered doubtful.

Data set [6] can be described thus: CNS symptoms and neurotoxicity (Fluoro-Jade C, ATF3) in dog toxicity studies. Type of data set: in vivo. How it is done:
In order to evaluate the potential neurotoxic effect of HM06-01, Fluoro-Jade C staining was performed on nine different brain areas (i.e., frontal pole, optic chiasm, infundibulum, mammillary bodies, base of third cranial nerve, anterior portion of pons and occipital pole section, cerebellum and medulla oblongata) of control dogs and dogs treated with 45 mg/kg BID HM06-01/TAS0953-01 (samples were taken from the 2-week toxicity study in dogs). In addition, ATF3 immunostaining was performed only on one control and one high dose dog treated with 45 mg/kg BID, in order to validate with an alternative method, the absence of any signs of neuronal degeneration or suffering.

Data set [7] is described as follows: ECG and blood pressure, 2-week toxicology GLP study. The format is in vivo, dog. The settings on record: for mean arterial blood pressure: high dose females. The protocol:
The effect of HM06-01/TAS0953-01 on the ECG was investigated in the 2-week toxicology GLP study in dog as described above on Day 12. […] Heart rate and ECG were also not affected at all dose levels tested. […] At +8 h, arterial blood pressure had returned to control/baseline levels. Although this decrease was not statistically significant versus control, it was consistent and noticeable enough to be considered test item related. Nevertheless, since the extent of the change was limited and present only in the high dose females, and as this decrease in blood pressure had no negative impact on the animals' health, it was considered as non-adverse.

Data set [8] relates to cell line from a patient who acquired resistance to RXDX-105 (KIF5B-RET fusion). Kind of data set: Growth inhibition, RXDX-105-resistant cell line. Type of data set: cell-based. The settings on record: Homo sapiens; RXDX-105-resistant, KIF5B-RET; read-out: IC50 growth inhibition.

Where only a bound is given, the exact number is not on record here.

Broadly, the AUC(0-t) is the area under the concentration-time curve up to a stated or last time point. A higher AUC(0-t) goes with more exposure. As usually defined, the Tmax is the time at which the peak concentration occurs. Usually half-life stands for how long it takes for the measured level to halve. For `COCc1ccc(NC(=O)c2c(C#CCN3CCOCC3)n(C3(C)CC3)c3ncnc(N)c23)cc1` [HM06-01/TAS0953-01, 4-amino-N-(4-(methoxymethyl)phenyl)-7-(1-methylcyclopropyl)-6-(3-morpholinoprop-1-yn-1-yl)-7H-pyrrolo[2,3-d]pyrimidine-5-carboxamide], the respiratory parameters result in data set [1] is listed as “Neither toxicologically relevant effects in respiratory parameters were observed at week 4”. Also, the test item-related mortality in data set [2] (45 mg/kg BID, Day 17 and Day 18) was 2 males; in data set [5] (90 mg/kg BID, Day 10 to Day 14) it was 3 females. Also, the body weight loss in data set [2] (45 mg/kg BID, Male No. 642, day 17) is −12%; in data set [2] (45 mg/kg BID, Male No. 644, day 15), −25%. Besides, in data set [2] (4-week, oral gavage), the “highest non severely toxic dose (HNSTD)” value is reported as 30 mg/kg BID. The “ophthalmology, urinalysis, coagulation, clinical chemistry” value in data set [2] (4 weeks oral BID) was “no change in ophthalmology, urinalysis and on coagulation and clinical chemistry parameters”. For the same compound, the “hematology, total white blood cell count” value in data set [2] (both sexes) is given as “increase in total white blood cell count”. The figures for the microscopic findings result in data set [2] (end of dosing period) and in data set [5] (end of dosing period) were “inflammatory microscopic findings in the lungs” and “inflammatory microscopic findings were noted in the lungs”, respectively. The AUC(0-t) in data set [2] (female, Day 1, females) was 29200 ng·h/mL; in data set [2] (female, Day 28, females) it was 29100 ng·h/mL; in data set [2] (male, Day 1, males) it was 21400 ng·h/mL; in data set [2] (male, Day 28, males) it was 22300 ng·h/mL; in data set [5] (female, rat, in vivo, po, Day 1, females), 37200 ng·h/mL; in data set [5] (female, rat, in vivo, po, Day 28, females), 74300 ng·h/mL. Further, the AUC(0-t) in data set [5] (male, rat, in vivo, po, Day 1, males) was found to be 50300 ng·h/mL; in data set [5] (male, rat, in vivo, po, Day 28, males) it was 73000 ng·h/mL. In data set [2] (from Day 1), the “dose at which test item-related clinical signs were noted” value is listed as ≥ 15 mg/kg BID. For the same compound, the body weight entry was “no effect on body weight” in data set [2] (low dose); “no effect on body weight” in data set [5] (25 and 50 mg/kg BID). Further, in data set [3] (Day 2, two hours after second daily dose, 15, 30 and 45 mg/kg BID), the ECG effects result is given as “no effects”. The “prolongation of Fridericia and Van der Water corrected QTc interval versus control” value in data set [3] (Day 23, females, 15, 30 and 45 mg/kg) was “up to 8%”. The heart rate entry in data set [3] (Day 23, males, 45 mg/kg BID) is “slight increase in heart rate”. The proconvulsant activity result in data set [4] (30, 100 and 200 mg/kg oral, 1 hour prior to 25 mg/kg PTZ) is “did not demonstrate any proconvulsant activity”. In addition, in data set [4] (100 and 200 mg/kg oral, pentylenetetrazole), the “anticonvulsant effect, total number of convulsions” value is “decrease in the total number of convulsions”. In addition, the “decrease of body weight” value in data set [5] (90 mg/kg BID, both sexes) stood at 10%. Moreover, the “severely toxic dose 10 (STD 10)” value in data set [5] (4-week, oral gavage) was 50 mg/kg BID. The ophthalmology result in data set [5] (4 weeks oral BID) is given as “no change in ophthalmology”. Also, the “systemic exposure vs dose” value in data set [5] (25-90 mg/kg BID) was “approximately dose proportional manner”. Further, the systemic accumulation result in data set [5] (Day 28) is given as “no systemic accumulation”. Also, in data set [5] (both sexes), the “clinical chemistry, AST and ALT” value is “dose-dependent increase in AST and ALT”. The “hematology, reticulocytes” value in data set [5] (both sexes) was “dose-dependent increase in reticulocytes”. Also, in data set [5] (both sexes), the urine protein concentration entry is reported as “dose-dependent increase in urine protein concentration”. For the same compound, the Tmax was found to be 7 h in data set [5] (rat, in vivo, po, Day 1, after the first daily dose) and 1 h in data set [5] (rat, in vivo, po, Day 28, after the first daily dose). For the same compound, in data set [5] (rat, in vivo, po, after the second daily dose, when estimable), the half-life is 122 to 220 min. Further, the “neuronal degeneration (Fluoro-Jade C, ATF3)” value in data set [6] (45 mg/kg BID, 2-week toxicity study, brain areas) is listed as “no evidence of any neuronal degeneration”. Further, the “dose at which CNS symptoms were seen” value is on record as ≥ 5 mg/kg BID in data set [6] (after the first administration in PK studies); ≥ 15 mg/kg BID in data set [6] (after the first daily dose, routine clinical observations, 2-week and 4-week toxicity studies). Also, in data set [7] (15, 30 and 45 mg/kg BID, Day 12), the QT prolongation entry is “No evidence of QT prolongation”. The “heart rate and ECG” value in data set [7] (all dose levels tested) is “not affected”. In addition, the “mean arterial blood pressure” value in data set [7] (1 hour after the second daily dose, vehicle 115) is on record as 93 mmHg; in data set [7] (5 hours after the first daily dosing, vehicle 127) it was 91 mmHg.

For orientation: IC50 means the concentration that gives 50% inhibition. Take `COc1cc2nccc(Oc3ccc(NC(=O)C4(C(=O)Nc5ccc(F)cc5)CC4)cc3)c2cc1OC` [cabozantinib, reference compound]: the IC50 in data set [8] amounted to 340 nM.
